This note sets out measurements from the NIST ThermoML archive (doi:10.1016/j.jct.2013.10.038).

The structures appear in SMILES notation. ± gives the expanded uncertainty stated by the source.

For data set [1] the following is noted: 101.33 kPa, Liquid, Pycnometric method.
Data set [2] can be described thus: activity coefficient (dimensionless); of the first substance listed, at infinite dilution; xn = mol fraction of the nth substance listed. The settings on record: 101 kPa, Liquid, Chromatography, x1 = 0.

Turning to `CCCCCCn1cc[n+](C)c1.O=C([O-])C(F)(F)F` [1-hexyl-3-methylimidazolium trifluoroacetate], the mass density in data set [1] (293.15 K) worked out at 1153.5 ± 1.1 kg/m3; in data set [1] (303.15 K), 1146.6 ± 1.1 kg/m3; in data set [1] (313.15 K), 1140.7 ± 1.1 kg/m3; in data set [1] (323.15 K), 1134.4 ± 1.1 kg/m3; in data set [1] (333.15 K) it was 1127.8 ± 1.1 kg/m3; in data set [1] (343.15 K), 1121.6 ± 1.1 kg/m3.
On to `CC(C)=O` [acetone] + CCCCCCn1cc[n+](C)c1.O=C([O-])C(F)(F)F, for which the activity coefficient worked out at 1.69 ± 0.18 in data set [2] (303.15 K); 1.69 ± 0.18 in data set [2] (313.15 K); 1.68 ± 0.18 in data set [2] (323.15 K); 1.68 ± 0.18 in data set [2] (333.15 K); 1.67 ± 0.17 in data set [2] (343.15 K); 1.67 ± 0.17 in data set [2] (353.15 K). In addition, in data set [2] (363.15 K), the activity coefficient is 1.67 ± 0.17.
With `CC1CCCCC1` [methylcyclohexane] + CCCCCCn1cc[n+](C)c1.O=C([O-])C(F)(F)F, the activity coefficient in data set [2] (323.15 K) came to 19.8 ± 2.1.
Turning to `CC(C)CO` [2-methyl-1-propanol] + CCCCCCn1cc[n+](C)c1.O=C([O-])C(F)(F)F, the activity coefficient in data set [2] (323.15 K) was 0.29 ± 0.04; in data set [2] (333.15 K), 0.3 ± 0.04; in data set [2] (343.15 K), 0.3 ± 0.04; in data set [2] (353.15 K), 0.31 ± 0.04; in data set [2] (363.15 K), 0.31 ± 0.04.
Regarding `ClC(Cl)Cl` [trichloromethane] + CCCCCCn1cc[n+](C)c1.O=C([O-])C(F)(F)F, the activity coefficient is 0.08 ± 0.03 in data set [2] (303.15 K); 0.12 ± 0.03 in data set [2] (313.15 K); 0.22 ± 0.03 in data set [2] (323.15 K); 0.3 ± 0.04 in data set [2] (333.15 K); 0.45 ± 0.05 in data set [2] (343.15 K); 0.68 ± 0.07 in data set [2] (353.15 K). Also, the activity coefficient in data set [2] (363.15 K) was 1.06 ± 0.11.
Consider `CCCCCC` [hexane] + CCCCCCn1cc[n+](C)c1.O=C([O-])C(F)(F)F, for which, in data set [2] (323.15 K), the activity coefficient amounted to 29 ± 3.
Same read-out and setting: then `CCCCCCCCC` [nonane] + CCCCCCn1cc[n+](C)c1.O=C([O-])C(F)(F)F, with 64.2 ± 6.8.
Take `ClC(Cl)(Cl)Cl` [tetrachloromethane] + CCCCCCn1cc[n+](C)c1.O=C([O-])C(F)(F)F: the activity coefficient in data set [2] (303.15 K) came out at 0.62 ± 0.07; in data set [2] (313.15 K), 0.7 ± 0.07; in data set [2] (323.15 K) it was 0.8 ± 0.08; in data set [2] (333.15 K), 0.91 ± 0.09; in data set [2] (343.15 K), 1.02 ± 0.1; in data set [2] (353.15 K), 1.19 ± 0.12. Further, the activity coefficient in data set [2] (363.15 K) was 1.32 ± 0.14.
With `ClCCCl` [1,2-dichloroethane] + CCCCCCn1cc[n+](C)c1.O=C([O-])C(F)(F)F, the activity coefficient was 0.62 ± 0.07 in data set [2] (303.15 K); 0.75 ± 0.08 in data set [2] (313.15 K); 0.9 ± 0.09 in data set [2] (323.15 K); 1.1 ± 0.11 in data set [2] (333.15 K); 1.26 ± 0.13 in data set [2] (343.15 K); 1.62 ± 0.17 in data set [2] (353.15 K). For the same compound, the activity coefficient in data set [2] (363.15 K) was 1.67 ± 0.17.
In the case of `CCOC(C)=O` [ethyl acetate] + CCCCCCn1cc[n+](C)c1.O=C([O-])C(F)(F)F, the activity coefficient was found to be 2.64 ± 0.28 in data set [2] (303.15 K); 2.8 ± 0.29 in data set [2] (313.15 K); 2.91 ± 0.31 in data set [2] (323.15 K); 3.02 ± 0.32 in data set [2] (333.15 K); 3.12 ± 0.33 in data set [2] (343.15 K); 3.15 ± 0.33 in data set [2] (353.15 K). The activity coefficient in data set [2] (363.15 K) is 3.44 ± 0.36.
As to `Clc1ccccc1` [chlorobenzene] + CCCCCCn1cc[n+](C)c1.O=C([O-])C(F)(F)F, the activity coefficient in data set [2] (303.15 K) amounted to 2.27 ± 0.24; in data set [2] (313.15 K) it was 2.26 ± 0.24; in data set [2] (323.15 K) it was 2.24 ± 0.24; in data set [2] (333.15 K), 2.22 ± 0.23; in data set [2] (343.15 K) it was 2.2 ± 0.23; in data set [2] (353.15 K), 2.2 ± 0.23. Further, in data set [2] (363.15 K), the activity coefficient came to 2.2 ± 0.23.
